The text below walks through data of patent US10947237B2, “Antimicrobial compounds and methods of making and using the same” (BIOVERSYS AG, priority 2015, dated 2021).

In test [1] the test system is Staphylococcus aureus (S. aureus) 11540 strain. Nature of the test: standard microdilution assay, minimum inhibitory concentration (MIC). Conditions: Table 2, 11540 strain. The test is classed as cell-based. As for the experimental part:
(§1) The in vitro activity of the compounds of the present disclosure can be determined. Antimicrobial testing is typically performed to determine the minimum inhibitory concentration (MIC). Minimum inhibitory concentrations (MICs) are determined by the microdilution method in a final volume of 100 μl according to protocols outlined by The Clinical and Laboratory Standards Institute (CLSI). Performance standards for reference strains are assessed within the same experimental design to maintain quality control. See, for example, Clinical Laboratory Standards Institute: Methods for dilution antimicrobial susceptibility tests for bacteria that grow aerobically M7-A8. Approved Standard-Eighth Edition. Wayne, Pa.: CLSI; December 2008; and Clinical Laboratory Standards Institute: Performance Standards for Antimicrobial Susceptibility Testing M100-S20; Approved Standard-Twentieth Edition. Wayne, Pa.: CLSI; June 2010. The compounds of the present disclosure were tested for antimicrobial activity. The Compounds 1-149 were run against Eschericia coli (E. Coli) strain ATCC25922 and against Staphylococcus aureus (S. aureus) 11540 strain using a standard microdilution assay to determine minimum inhibitory concentrations (MICs). […] It will be recognized by one skilled in the art that the compounds can be assessed against other bacterial organisms and that the presentation of data for activity against Eschericia coli and Staphylococcus aureus are illustrative and in no way is intended to limit the scope of the present disclosure. The compounds of the present disclosure can be assayed against a range of other microorganisms depending upon the performance activity desired to be gathered. Furthermore, the “+” and “−” representation and the selection of a cutoff value of 16 micrograms/mL is also illustrative and in no way is intended to limit the scope of the present disclosure.
(In general: In broth dilution the organism is exposed to a series of concentrations in liquid medium.)

For test [2], the system named is Eschericia coli (E. Coli) strain ATCC25922. Described as above. The test is classed as cell-based. Particulars: Escherichia coli; Table 2; strain ATCC25922. As for the experimental part: as §1

As to `CC(=N)NCC[C@H](CO)OCc1ccc(-n2cc3cc(-c4cc(CCC[C@H](C)N)cc(Cl)c4F)[nH]c3nc2=O)cc1` [Compound 72], the MIC in test [1] and in test [2] was not above 16 µg/mL in each case.

Take `C[C@H](N)CCCc1cc(Cl)c(F)c(-c2cc3cn(-c4ccc([C@H]5CC[C@@H](CCNC(=N)N)O5)cc4)c(=O)nc3[nH]2)c1` [Compound 73]: the MIC in test [1] and in test [2] was not above 16 µg/mL each time.

For `C[C@H](N)CCCc1cc(Cl)c(F)c(-c2cc3cn(-c4ccc([C@H]5CC[C@H](CCNC(=N)N)O5)cc4)c(=O)nc3[nH]2)c1` [Compound 74], the MIC in test [1] and in test [2] was not above 16 µg/mL throughout.

As for `C[C@H](N)CCCc1cc(Cl)c(F)c(-c2cc3cn(-c4ccc(CO[C@H](CCNC(=N)N)CNc5ccccn5)cc4)c(=O)nc3[nH]2)c1` [Compound 75], the MIC in test [1] and in test [2] was not above 16 µg/mL throughout.

With `C[C@H](N)CCCc1cc(Cl)c(F)c(-c2cc3cn(-c4ccc(CO[C@H](CCNC(=N)N)CNc5ncc[nH]5)cc4)c(=O)nc3[nH]2)c1` [Compound 76], the MIC in test [1] and in test [2] was not above 16 µg/mL in each case.

Turning to `CC1=NC[C@@H](CCNC(=N)N)N1Cc1ccc(-n2cc3cc(-c4cc(CCC[C@H](C)N)cc(Cl)c4F)[nH]c3nc2=O)cc1` [Compound 77], the MIC in test [1] and in test [2] was not above 16 µg/mL throughout.

With `C=C[C@H]1C[C@@H](CCNC(=N)N)O[C@H](c2ccc(-n3cc4cc(-c5cc(CCC[C@H](C)N)cc(Cl)c5F)[nH]c4nc3=O)cc2)C1` [Compound 78], the MIC in test [1] and in test [2] was not above 16 µg/mL in each case.

As for `C=C[C@H]1C[C@@H](CCNC(=N)N)O[C@H](c2ccc(-n3cc4cc(C5CCNC5)[nH]c4nc3=O)cc2)C1` (stereo partly drawn) [Compound 79], the MIC in test [1] and in test [2] was more than 16 µg/mL each time.

In the case of `C=C[C@H]1C[C@@H](CCNC(=N)N)O[C@H](c2ccc(-n3cc4cc(C5CCN(C(=N)N)C5)[nH]c4nc3=O)cc2)C1` (stereo partly drawn) [Compound 80], the MIC in test [1] and in test [2] was more than 16 µg/mL in each case.

On to `CCC(=N)NCC[C@@H]1CCC[C@@H](c2ccc(-n3cc4cc(-c5cc(CCC[C@H](C)N)cc(Cl)c5F)[nH]c4nc3=O)cc2)N1` [Compound 81], for which the minimum inhibitory concentration (MIC) in test [1] and in test [2] was not above 16 µg/mL each time.

On to `CC(C)C(=N)NCC[C@@H]1CCC[C@@H](c2ccc(-n3cc4cc(-c5cc(CCC[C@H](C)N)cc(Cl)c5F)[nH]c4nc3=O)cc2)N1` [Compound 82], for which the MIC in test [1] and in test [2] was not above 16 µg/mL each time.

Turning to `C[C@H](N)CCCc1cc(Cl)c(F)c(-c2cc3cn(-c4ccc([C@@H]5CCC[C@@H](CCNC(=N)C6CC6)N5)cc4)c(=O)nc3[nH]2)c1` [Compound 83], the MIC in test [1] and in test [2] was not above 16 µg/mL in each case.

`C[C@H](N)CCCc1cc(Cl)c(F)c(-c2cc3cn(-c4ccc([C@@H]5CCC[C@@H](CCNC(=N)C6CCC6)N5)cc4)c(=O)nc3[nH]2)c1` [Compound 84]: the MIC in test [1] and in test [2] was not above 16 µg/mL each time.

`C[C@H](N)CCCc1cc(Cl)c(F)c(-c2cc3cn(-c4ccc([C@@H]5CCC[C@@H](CCNC(=N)CF)N5)cc4)c(=O)nc3[nH]2)c1` [Compound 85]: the MIC in test [1] and in test [2] was not above 16 µg/mL each time.

For the compound `C[C@H](N)CCCc1cc(Cl)c(F)c(-c2cc3cn(-c4ccc([C@@H]5CCC[C@@H](CCNC(=N)CCl)N5)cc4)c(=O)nc3[nH]2)c1` [Compound 86], the MIC in test [1] and in test [2] was not above 16 µg/mL throughout.

With `C[C@H](N)CCCc1cc(Cl)c(F)c(-c2cc3cn(-c4ccc([C@H]5CC(CCNC(=N)N)CC(CO)O5)cc4)c(=O)nc3[nH]2)c1` (stereo partly drawn) [Compound 87], the MIC in test [1] and in test [2] was not above 16 µg/mL each time.

Regarding `C[C@H](N)CCCc1cc(Cl)c(F)c(-c2cc3cn(-c4ccc([C@@H]5CC(CCNC(=N)N)CC(CO)O5)cc4)c(=O)nc3[nH]2)c1` (stereo partly drawn) [Compound 88], the MIC in test [1] and in test [2] was not above 16 µg/mL in each case.

As for `C[C@H](N)CCCc1cc(Cl)c(F)c(-c2cc3cn(-c4ccc([C@@H]5C/C(=C/CNC(=N)N)CC(CO)O5)cc4)c(=O)nc3[nH]2)c1` (stereo partly drawn) [Compound 89], the MIC in test [1] and in test [2] was not above 16 µg/mL throughout.

As to `C[C@H](N)CCCc1cc(Cl)c(F)c(-c2cc3cn(-c4ccc(CN[C@H](CCNC(=N)N)CNc5cc(F)ccn5)cc4)c(=O)nc3[nH]2)c1` [Compound 91], the MIC in test [1] and in test [2] was not above 16 µg/mL each time.

On to `C[C@H](N)CCCc1cc(Cl)c(F)c(-c2cc3cn(-c4ccc(N5CCOC(CCNC(=N)N)C5)cc4)c(=O)nc3[nH]2)c1` (stereo partly drawn) [Compound 92], for which the MIC in test [1] and in test [2] was not above 16 µg/mL in each case.

Regarding `C=C[C@@H](CCNC(=N)N)OCc1ccc(-n2cc3cc(CCNC4CCNCC4)[nH]c3nc2=O)cc1` [Compound 93], the MIC in test [1] and in test [2] was more than 16 µg/mL in each case.

For the compound `O=c1nc2[nH]c(C3CCNC3)cc2cn1-c1ccc([C@@H]2CCC[C@@H](CCNc3ncc[nH]3)N2)cc1` (stereo partly drawn) [Compound 94], the MIC (as a rule, the smallest concentration in the dilution series that meets the test's criterion for growth inhibition) in test [1] is more than 16 µg/mL; in test [2], not above 16 µg/mL.

Turning to `O=c1nc2[nH]c(CCNC3CCNCC3)cc2cn1-c1ccc([C@@H]2CCC[C@@H](CCNc3ncc[nH]3)N2)cc1` [Compound 95], the MIC in test [1] and in test [2] was not above 16 µg/mL in each case.

As for `C[C@H](N)CCCc1cc(Cl)c(F)c(-c2cc3cn(-c4ccc([C@H]5C[C@H](CCNC(=N)N)C[C@H](CN)O5)cc4)c(=O)nc3[nH]2)c1` [Compound 96], the MIC in test [1] and in test [2] was not above 16 µg/mL throughout.

On to `CC(=N)NCC[C@@H]1C[C@H](CN)O[C@@H](c2ccc(-n3cc4cc(-c5cc(CCC[C@H](C)N)cc(Cl)c5F)[nH]c4nc3=O)cc2)C1` [Compound 97], for which the MIC in test [1] and in test [2] was not above 16 µg/mL throughout.

Consider `N=C(N)NCC[C@@H]1C[C@H](CN)O[C@@H](c2ccc(-n3cc4cc(C5CCNC5)[nH]c4nc3=O)cc2)C1` (stereo partly drawn) [Compound 98], for which the MIC in test [1] and in test [2] was more than 16 µg/mL each time.

Consider `N=C(N)NCC[C@@H]1C[C@H](CN)O[C@@H](c2ccc(-n3cc4cc(CCNC5CCNCC5)[nH]c4nc3=O)cc2)C1` [Compound 99], for which the MIC is more than 16 µg/mL in test [1] and not above 16 µg/mL in test [2].

Regarding `N=C(N)NCC[C@@H]1CCC[C@@H](c2ccc(-n3cc4cc(C5CCNC5)[nH]c4nc3=O)cc2)N1` (stereo partly drawn) [Compound 100], the minimum inhibitory concentration (MIC) in test [1] and in test [2] was not above 16 µg/mL throughout.

`N=C(N)NCC[C@@H]1CCC[C@@H](c2ccc(-n3cc4cc(CCNC5CCNCC5)[nH]c4nc3=O)cc2)N1` [Compound 101]: the MIC in test [1] and in test [2] was not above 16 µg/mL in each case.

Consider `O=c1nc2[nH]c(CCNC3CCNCC3)cc2cn1-c1ccc([C@@H]2CCC[C@@H](CCc3ncc[nH]3)N2)cc1` [Compound 102], for which the MIC in test [1] and in test [2] was not above 16 µg/mL throughout.

Take `N=C(N)NCC[C@H](CNc1ccccn1)OCc1ccc(-n2cc3cc(C4CCNC4)[nH]c3nc2=O)cc1` (stereo partly drawn) [Compound 103]: the MIC in test [1] and in test [2] was more than 16 µg/mL in each case.

Regarding `N=C(N)NCC[C@H](CNc1ncc[nH]1)OCc1ccc(-n2cc3cc(CCNC4CCNCC4)[nH]c3nc2=O)cc1` [Compound 104], the MIC in test [1] and in test [2] was not above 16 µg/mL in each case.

For the compound `N=C(N)NCC[C@H](CNc1ccccn1)OCc1ccc(-n2cc3cc(CCNC4CCNCC4)[nH]c3nc2=O)cc1` [Compound 105], the MIC in test [1] and in test [2] was more than 16 µg/mL in each case.
